Among the test systems are CCRF-CEM; Malme-3M; CAKI-1; NCI/ADR-RES; HCT-116; SK-MEL-5; NCI-H522; OVCAR-3; PC-3; HCC 2998; NCI-H226; RPMI-8226; K562; U-251; COLO 205; MDA-MB-435; HCT-15; A498; UO-31; RXF 393.
What all share (experiment): NCI tumour cell line growth inhibition, 48 h

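These data come from cells grown in 96-well plates and exposed to compound for 48 hours at five concentrations. Here, GI50 denotes the concentration required for 50% inhibition of growth.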 Active and inactive are the calls of the source. Cut-off read from the data, not from the text of the source: active = GI50 up to about 1.1 µM and inactive = higher.

As to `CC(C)(C)c1cc(C2COC(=O)COCCOCC(=O)OCCOCCO2)cc(C(C)(C)C)c1O` (stereo not given), the GI50 was > 100 µM (inactive) in the assay with CCRF-CEM; > 100 µM (inactive) in the assay with Malme-3M; 18 µM (inactive) with CAKI-1; > 100 µM (inactive) with NCI/ADR-RES; > 68.2 µM (inactive) in the assay on HCT-116; > 100 µM (inactive) with SK-MEL-5. Also, the GI50 in the assay with NCI-H522 was > 47 µM (inactive); in the assay with OVCAR-3 it was > 100 µM (inactive); in the assay on PC-3, 22.4 µM (inactive); in the assay on HCC 2998, 23 µM (inactive); in the assay on NCI-H226 it was > 100 µM (inactive); in the assay with RPMI-8226, > 100 µM (inactive). The GI50 in the assay on K562 is > 100 µM (inactive); in the assay with U-251, 36.7 µM (inactive); in the assay on COLO 205, 32.5 µM (inactive); with MDA-MB-435 it was 37.3 µM (inactive); in the assay with HCT-15, 50.2 µM; with A498, > 80.5 µM (inactive). The GI50 was 15.6 µM (inactive) in the assay on UO-31 and 23.1 µM (inactive) with RXF 393.

Take `O=C(Nc1cnc(O)nc1O)C(Cl)Cl`: the GI50 in the assay on CCRF-CEM, in the assay on Malme-3M, in the assay on CAKI-1, with NCI/ADR-RES, in the assay on HCT-116 and in the assay with SK-MEL-5 was > 100 µM (inactive) throughout. For the same compound, the GI50 with NCI-H522, with OVCAR-3, with PC-3, with HCC 2998, in the assay on NCI-H226 and in the assay on RPMI-8226 was > 100 µM (inactive) each time. Besides, the GI50 is > 100 µM (inactive) in the assay with K562; > 100 µM (inactive) with U-251; > 100 µM (inactive) with COLO 205; > 100 µM (inactive) in the assay with MDA-MB-435; more than 100 µM in the assay with HCT-15; > 100 µM (inactive) with A498. Moreover, the GI50 in the assay on UO-31 and in the assay with RXF 393 was > 100 µM (inactive) each time.

With `N#Cc1c(Cl)c2cccnc2n2c1nc1ccccc12`, the GI50 in the assay on CCRF-CEM is 0.9 µM (active); with Malme-3M, 1.84 µM (inactive); in the assay with CAKI-1, 1.9 µM (inactive); in the assay with NCI/ADR-RES, 2.69 µM (inactive); in the assay on HCT-116, 1.7 µM (inactive); in the assay with SK-MEL-5 it was 1.13 µM (inactive). Further, the GI50 with NCI-H522 was 1.17 µM (inactive); in the assay with OVCAR-3, 2.72 µM (inactive); in the assay on PC-3, 2.41 µM (inactive); in the assay with HCC 2998, 3.85 µM (inactive); in the assay on NCI-H226, 2.93 µM (inactive); in the assay on RPMI-8226, 1.78 µM (inactive). Also, the GI50 was 0.427 µM (active) with K562; 4.28 µM (inactive) in the assay on U-251; 1.99 µM (inactive) with COLO 205; 4.3 µM (inactive) with MDA-MB-435; 2.04 µM with HCT-15; 17.3 µM (inactive) in the assay with A498. Moreover, the GI50 with UO-31 was 1.81 µM (inactive); with RXF 393, 1.42 µM (inactive).

Consider `COC(=O)/C=C1\CCC(C)(C(=O)NS(=O)(=O)c2ccc(C)cc2)C1(C)C` (stereo not given), for which the GI50 with CCRF-CEM, with Malme-3M, with CAKI-1, in the assay with NCI/ADR-RES, in the assay on HCT-116 and in the assay on SK-MEL-5 was > 100 µM (inactive) in each case. Besides, the GI50 with NCI-H522, with OVCAR-3, in the assay with PC-3, in the assay on HCC 2998, in the assay on NCI-H226 and with RPMI-8226 was > 100 µM (inactive) in each case. Besides, the GI50 in the assay on K562 is > 100 µM (inactive); in the assay on U-251 it was > 100 µM (inactive); with COLO 205, > 100 µM (inactive); in the assay on MDA-MB-435 it was 4.48 µM (inactive); in the assay on HCT-15 it was more than 100 µM; in the assay on A498, > 100 µM (inactive). The GI50 with UO-31 and in the assay with RXF 393 was > 100 µM (inactive) each time.

`O=NN(CCCl)C(=O)NCCCl` [CARMUSTINE]: the GI50 with CCRF-CEM is 18.7 µM (inactive); with Malme-3M, 81.5 µM (inactive); with CAKI-1 it was 71.9 µM (inactive); with NCI/ADR-RES, 94.6 µM (inactive); in the assay with HCT-116, 73.6 µM (inactive); in the assay with SK-MEL-5 it was 78.7 µM (inactive). Further, the GI50 in the assay with NCI-H522 was 42.9 µM (inactive); in the assay on OVCAR-3 it was 83.6 µM (inactive); in the assay with PC-3, 97.7 µM (inactive); in the assay with HCC 2998, 93.8 µM (inactive); in the assay on NCI-H226, 105 µM (inactive); in the assay with RPMI-8226, 51.3 µM (inactive). In addition, the GI50 was 45.8 µM (inactive) with K562; 52.1 µM (inactive) in the assay with U-251; 72.3 µM (inactive) with COLO 205; 75.5 µM (inactive) in the assay with MDA-MB-435; 64.6 µM in the assay with HCT-15; 102 µM (inactive) with A498. Besides, the GI50 with UO-31 was 98.2 µM (inactive); in the assay with RXF 393, 76.2 µM (inactive).

Values taken from ChEMBL document CHEMBL1201862, “PubChem BioAssay data set” (2004).
